Some test systems named below: MDA-MB-435; MDA-N; XF 498 CNS; SNB-78 CNS; M19-MEL melanoma; DMS 273 small cell lung; HOP-18 NSCLC; DLD-1 colon.
Common to all, as to assay: DTP human tumour cell line panel, 48 h

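Assay format: 96-well plates, 48-hour exposure. GI50 = concentration required for 50% inhibition of growth. TGI: total growth inhibition.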 Some results are limits rather than exact numbers.

As a reminder, the TGI is the concentration at which net growth stops. The low end stands for greater sensitivity of the cells, the high end for lower sensitivity of the cells. For the molecule `COc1cccc(N2C(=O)C3c4[nH]c5ccccc5c4C4CCCC4C3C2=O)c1` (stereo not drawn), the TGI in the assay on MDA-MB-435 and in the assay on MDA-N was > 10 µM throughout.
As usually defined, the GI50 is the concentration giving 50% growth inhibition. For the molecule `O=C1c2cc3c(cc2[C@@H]2[C@H]1c1ccc([N+](=O)[O-])cc1C(=O)N2CCCBr)OCO3`, in the assay on MDA-MB-435, the GI50 is < 0.01 µM and the TGI is 0.219 µM.
On to `O=C1C(c2ccccc2)=C(O)c2cccc3cccc1c23`, for which the TGI with XF 498 CNS, with SNB-78 CNS, in the assay on M19-MEL melanoma, in the assay with DMS 273 small cell lung and in the assay with HOP-18 NSCLC was > 100 µM throughout.
For `O=C1NNC2(C(=O)N1)c1ccccc1-c1ccccc12`, the TGI in the assay on MDA-MB-435 and in the assay on MDA-N was > 10 µM in each case.
On to `COc1cc2nc(N3CCCC3)nc(NCc3ccccc3)c2cc1OC`, for which, in the assay with MDA-MB-435, the GI50 was 1.69 µM and the TGI amounted to 3.16 µM.
Take `C=C(C(N)=O)c1ccc([N+](=O)[O-])o1`: the figures for the TGI in the assay on MDA-MB-435 and in the assay on MDA-N were 7.65 µM and 13.5 µM, respectively.
For `Cc1ccccc1OCC(O)CN1CCN(c2ccc(Cl)cc2)CC1` (stereo not drawn), in the assay on MDA-MB-435, the GI50 is 14.4 µM and the TGI was found to be 28.8 µM.
Consider `CCOC(=O)CCC(NC(=O)OCc1ccccc1)C(=O)NC(CCC(=O)OCC)C(=O)NC(CCC(=O)OCC)C(=O)NC(CCC(=O)OCC)C(=O)NC(CCC(=O)OCC)C(=O)NC(CCC(=O)OCC)C(=O)NC(CCC(=O)OCC)C(=O)OCC` (stereo not drawn), for which the TGI in the assay on MDA-MB-435 and in the assay with MDA-N was > 100 µM in each case.
With `C/C(=N/NC(=S)N1CCCCC1)c1ccccc1O`, the TGI in the assay on MDA-MB-435 and with MDA-N was > 31.6 µM each time.
Take `Cc1cc(NCCCN(C)C)c2ccc3c(ccc4c(NCCCN(C)C)cc(C)nc43)c2n1`: in the assay with MDA-MB-435, the GI50 was 0.226 µM and the TGI is 0.539 µM.
The like results for `Cc1ccc(S(=O)(=O)c2c(COC(=O)c3cccc(C)c3)c(-c3ccccc3)nn2C)cc1` were, in that order, > 100 µM and > 100 µM.
Turning to `CCOc1cc2c(C(=O)CC)c(O)ccc2o1`, the concentration for total growth inhibition (TGI) in the assay with XF 498 CNS is > 80.1 µM; in the assay on SNB-78 CNS, > 100 µM; with DLD-1 colon it was > 43.2 µM; in the assay with M19-MEL melanoma it was > 63.7 µM; in the assay on DMS 273 small cell lung it was > 100 µM.
Take `C=C/C=C/NC(=O)OCc1ccccc1`: the total growth inhibition concentration (TGI) in the assay on XF 498 CNS, with SNB-78 CNS, with DLD-1 colon, in the assay with M19-MEL melanoma, with DMS 273 small cell lung and with HOP-18 NSCLC was > 100 µM in each case.
As for `COc1cc(OC)c2nc(C)c3c(c2c1)SCC3`, the TGI is 58.3 µM in the assay with MDA-MB-435 and 85 µM in the assay with MDA-N.
In the case of `CC1=C(c2cccc(O)c2)[C@H](c2ccc(OCCN3CC(CF)C3)cc2)Oc2ccc(O)cc21`, in the assay on MDA-MB-435, the GI50 is 12 µM and the TGI worked out at 24.3 µM.
Turning to `CC(CN(C)C)/C(=N\Nc1ccccc1)c1ccccc1` (stereo not drawn), the TGI with SNB-78 CNS was 83 µM; in the assay with DLD-1 colon it was > 100 µM; in the assay with M19-MEL melanoma, 14.5 µM; with DMS 273 small cell lung, 12.1 µM; in the assay with HOP-18 NSCLC, 67.3 µM.
For the molecule `NCCCC[C@@H]1NC(=O)[C@H]2CCCN2C(=O)[C@H](Cc2ccccc2)CNC(=O)[C@H](Cc2ccccc2)NC1=O`, in the assay on MDA-MB-435, the GI50 was > 37.5 µM and the TGI is > 37.5 µM.
Consider `Cc1cc2c(C(C)C)c(O)c(O)cc2c(O)c1-c1c(C)cc2c(C(C)C)c(O)c(O)cc2c1O`, for which, in the assay with MDA-MB-435, the GI50 was 14.5 µM and the concentration for total growth inhibition (TGI) was determined as 31.3 µM.
Turning to `COc1c(O)c2c3c(cc(C)cc3c1C(C)C)OC2`, the TGI with XF 498 CNS, in the assay on SNB-78 CNS, in the assay with DLD-1 colon, in the assay on M19-MEL melanoma, in the assay on DMS 273 small cell lung and with HOP-18 NSCLC was > 100 µM each time.
`COc1ccc2c(c1)c(CC(=O)[Se]C)c(C)n2C(=O)c1ccc(Cl)cc1`: in the assay with MDA-MB-435, the GI50 is > 0.231 µM and the TGI is > 0.503 µM.
In the case of `C#CC#CC#CC#CC#CC#CC#CC#CCC1OCC(COC(=O)O[C@@H](C(=O)O[C@H]2C[C@@]3(O)[C@@H](OC(=O)c4ccccc4)[C@@H]4[C@]5(OC(C)=O)CO[C@@H]5C[C@H](O)[C@@]4(C)C(=O)[C@H](OC(C)=O)C(=C2C)C3(C)C)[C@@H](NC(=O)c2ccccc2)c2ccccc2)O1` (stereo partly drawn), in the assay with MDA-MB-435, the GI50 is 0.0167 µM and the TGI came out at 0.0434 µM.
In the case of `COc1cc(C(=O)c2c(-c3ccccc3)oc3c(OC)cccc23)cc(OC)c1OC`, in the assay with MDA-MB-435, the concentration for 50% growth inhibition (GI50) was 0.0216 µM and the TGI worked out at 0.0577 µM.
For `Cc1[nH]c2ccccc2c1CCCO`, in the assay with MDA-MB-435, the GI50 was > 100 µM and the TGI is > 100 µM.
`CC1(C)CC(O)C(C)(C)[C@@H](O)C1` (stereo partly drawn): the TGI in the assay on MDA-N is > 100 µM.
On to `NNC(=O)C1CCC(=O)N1S(=O)(=O)c1ccccc1` (stereo not drawn), for which the TGI in the assay on XF 498 CNS, in the assay with SNB-78 CNS, in the assay on DLD-1 colon, in the assay on M19-MEL melanoma and with DMS 273 small cell lung was > 100 µM each time.
`CCOC(C[C@H](O[Si](C)(C)C(C)(C)C)[C@H]1COC(=S)S1)OCC`: the concentration for total growth inhibition (TGI) is 66.7 µM in the assay with XF 498 CNS, > 100 µM with M19-MEL melanoma and 73.9 µM in the assay with DMS 273 small cell lung.
Take `CC1CCC/C1=C(/I)C(=O)c1ccccc1` (stereo not drawn): the TGI with MDA-MB-435 was 82 µM; with MDA-N, > 100 µM.
In the case of `COc1cc2c[n+](C)c3c4cc(OC)c(OC(C)C)cc4ccc3c2cc1OC`, the total growth inhibition concentration (TGI) in the assay with SNB-78 CNS is > 100 µM; with DLD-1 colon, > 100 µM; with M19-MEL melanoma, 48.7 µM; in the assay on DMS 273 small cell lung, 97.6 µM; in the assay with HOP-18 NSCLC, > 100 µM.
Take `C=C1C(O)C2C(=C(CC)C13CC3)C(=O)C(C)(C)C2OC` (stereo not drawn): in the assay on MDA-MB-435, the GI50 was > 100 µM and the TGI is > 100 µM.
For `N#C/C(=C\c1ccsc1)c1nc2ccccc2o1`, in the assay on MDA-MB-435, the GI50 is > 100 µM and the TGI is > 100 µM.

The record behind these values is PubChem BioAssay (NCI).
